The target of assay [1] is late INa (Canis lupus familiaris, UniProt Q865W3). Put plainly: Late INa during action potential voltage clamp in canine midmyocardial myocytes. In kind it is cell-based.
Assay [2] deals with T1, slowly activating component of the delayed rectifier current (IKs) (Canis lupus familiaris, UniProt A0A8I3N8W8).
T1 construct: Myocytes were isolated by enzymatic dissociation from a wedge-shaped section of the left ventricular free wall; endogenous in cells; host or cells: isolated canine left ventricular myocytes
T1 sequence (A0A8I3N8W8 1-676): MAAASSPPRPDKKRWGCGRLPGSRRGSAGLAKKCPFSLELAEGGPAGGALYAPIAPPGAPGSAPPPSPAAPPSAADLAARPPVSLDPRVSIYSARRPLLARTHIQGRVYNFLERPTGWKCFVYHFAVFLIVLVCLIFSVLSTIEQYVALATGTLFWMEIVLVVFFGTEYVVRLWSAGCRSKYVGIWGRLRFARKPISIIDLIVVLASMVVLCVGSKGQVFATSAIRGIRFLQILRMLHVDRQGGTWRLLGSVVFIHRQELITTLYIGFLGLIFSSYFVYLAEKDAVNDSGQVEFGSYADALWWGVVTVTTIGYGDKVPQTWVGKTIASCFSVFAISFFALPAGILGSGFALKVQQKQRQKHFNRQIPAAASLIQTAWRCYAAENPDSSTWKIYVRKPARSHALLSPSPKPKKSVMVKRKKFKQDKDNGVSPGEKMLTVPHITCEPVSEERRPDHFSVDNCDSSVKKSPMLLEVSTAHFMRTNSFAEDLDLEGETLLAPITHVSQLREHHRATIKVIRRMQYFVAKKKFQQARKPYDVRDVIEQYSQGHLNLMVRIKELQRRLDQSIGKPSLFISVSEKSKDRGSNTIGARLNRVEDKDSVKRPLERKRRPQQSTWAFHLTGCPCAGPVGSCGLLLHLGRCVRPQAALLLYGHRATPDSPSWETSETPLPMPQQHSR
Nature of the assay: Whole cell voltage clamp of IKs tail current in isolated canine left ventricular myocytes. In kind it is cell-based. The procedure: Myocytes were isolated by enzymatic dissociation from a wedge-shaped section of the left ventricular free wall supplied by the left circumflex coronary artery. Cells from the epicardial and midmyocardial regions of the left ventricle were used in this study.
Inward rectifier potassium current (IK), slow delayed rectifier potassium current (IKs), and rapid delayed rectifier potassium current (IKr) were recorded at 37° C. using conventional whole cell voltage clamp configuration.
IK1 was measured using an external solution containing 3 μM ouabain and 5 μM nifedipine to block the sodium-potassium pump and L-type calcium current (ICa,L), respectively. […] 5 μM nifedipine was present in the external solution when IKr was being recorded.
Isolated myocytes were placed in a temperature controlled 0.5 ml chamber (Medical Systems, Greenvale, N.Y.) on the stage of an inverted microscope and superfused at a rate of 2 ml/min. An eight-barrel quartz micromanifold (ALA Scientific Instruments Inc., Westbury, N.Y.) placed 100 μm from the cell was used to apply ranolazine at concentrations of (in μM): 0.1, 0.5, 1.0, 5.0, 10 and 100.0. An Axopatch 1D amplifier (Axon Instruments, Foster City, Calif.) was operated in voltage clamp mode to record currents. […]

Entries after “also recorded” stand apart in the source; their conditions may differ. Read-outs that look alike come from different tables or passages of the source.

Chain of late INa (Q865W3 1-2013): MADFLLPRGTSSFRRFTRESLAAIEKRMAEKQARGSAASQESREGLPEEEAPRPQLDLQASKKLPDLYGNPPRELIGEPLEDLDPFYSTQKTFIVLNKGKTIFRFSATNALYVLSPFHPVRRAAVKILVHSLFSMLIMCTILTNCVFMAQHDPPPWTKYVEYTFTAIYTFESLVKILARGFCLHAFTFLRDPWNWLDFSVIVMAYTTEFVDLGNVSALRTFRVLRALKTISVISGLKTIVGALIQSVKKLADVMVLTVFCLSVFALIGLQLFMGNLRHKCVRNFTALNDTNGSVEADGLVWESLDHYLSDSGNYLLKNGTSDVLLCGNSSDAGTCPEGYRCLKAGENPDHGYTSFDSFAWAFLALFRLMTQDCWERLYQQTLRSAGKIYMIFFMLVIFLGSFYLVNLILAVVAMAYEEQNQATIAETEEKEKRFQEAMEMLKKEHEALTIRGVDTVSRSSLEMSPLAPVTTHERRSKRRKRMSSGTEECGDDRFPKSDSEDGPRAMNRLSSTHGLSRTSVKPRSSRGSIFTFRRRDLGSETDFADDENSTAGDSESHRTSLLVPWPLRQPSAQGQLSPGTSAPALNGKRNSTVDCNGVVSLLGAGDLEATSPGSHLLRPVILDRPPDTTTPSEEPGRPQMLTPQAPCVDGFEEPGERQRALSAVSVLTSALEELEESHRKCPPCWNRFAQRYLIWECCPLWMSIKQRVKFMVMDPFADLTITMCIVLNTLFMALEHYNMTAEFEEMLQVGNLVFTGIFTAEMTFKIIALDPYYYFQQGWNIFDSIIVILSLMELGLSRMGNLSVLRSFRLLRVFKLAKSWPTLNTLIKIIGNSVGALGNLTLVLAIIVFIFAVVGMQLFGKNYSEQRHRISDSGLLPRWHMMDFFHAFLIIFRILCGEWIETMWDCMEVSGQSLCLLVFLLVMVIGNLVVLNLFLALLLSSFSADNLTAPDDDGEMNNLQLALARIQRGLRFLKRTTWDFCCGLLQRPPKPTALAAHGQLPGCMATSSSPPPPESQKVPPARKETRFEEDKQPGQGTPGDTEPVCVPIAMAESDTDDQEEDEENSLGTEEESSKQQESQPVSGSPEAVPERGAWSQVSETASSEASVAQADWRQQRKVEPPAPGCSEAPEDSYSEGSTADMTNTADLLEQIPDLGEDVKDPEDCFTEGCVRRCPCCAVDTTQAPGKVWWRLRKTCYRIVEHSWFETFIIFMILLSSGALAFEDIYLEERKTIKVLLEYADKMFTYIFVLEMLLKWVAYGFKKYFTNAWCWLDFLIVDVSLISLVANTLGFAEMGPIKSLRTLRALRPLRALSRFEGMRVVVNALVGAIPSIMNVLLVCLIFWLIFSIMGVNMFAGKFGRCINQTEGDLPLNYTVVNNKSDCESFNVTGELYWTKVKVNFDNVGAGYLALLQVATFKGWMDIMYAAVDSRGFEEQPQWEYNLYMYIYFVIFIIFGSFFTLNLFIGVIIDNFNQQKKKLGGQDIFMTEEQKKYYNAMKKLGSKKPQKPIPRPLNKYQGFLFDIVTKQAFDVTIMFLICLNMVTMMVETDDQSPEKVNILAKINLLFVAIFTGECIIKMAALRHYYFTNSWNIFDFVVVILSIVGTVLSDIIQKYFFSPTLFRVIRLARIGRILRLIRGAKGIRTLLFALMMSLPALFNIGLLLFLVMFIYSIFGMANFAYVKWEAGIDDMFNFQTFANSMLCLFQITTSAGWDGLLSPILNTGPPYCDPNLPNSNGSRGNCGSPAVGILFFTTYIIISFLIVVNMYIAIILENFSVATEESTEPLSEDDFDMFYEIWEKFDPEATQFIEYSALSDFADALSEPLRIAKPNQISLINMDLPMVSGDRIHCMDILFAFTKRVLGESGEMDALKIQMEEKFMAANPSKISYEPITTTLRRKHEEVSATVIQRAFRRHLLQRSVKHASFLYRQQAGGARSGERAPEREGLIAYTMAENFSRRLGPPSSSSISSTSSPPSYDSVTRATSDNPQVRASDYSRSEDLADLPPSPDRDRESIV

Turning to `COc1ccccc1OCC(O)CN1CCN(CC(=O)Nc2c(C)cccc2C)CC1` (racemic) [ranolazine, N-(2,6-dimethylphenyl)-4-[2-hydroxy-3-(2-methoxyphenoxy)propyl]-1-piperazineacetamide], the IC50 came to 5.9 µM in assay [1] (BCL 2000 ms, first value (plateau, 20 mV), read-out: Half-inhibition of late INa); 20.8 µM in assay [1] (BCL 2000 ms, second value (−28 mV), read-out: Half-inhibition of late INa); 11.5 µM in assay [1] (basic cycle length 300 ms, read-out: Half-inhibition of INa,late); 20.8 µM in assay [1] (basic cycle length 2000 ms, read-out: Half-inhibition of INa,late); 13.4 µM in assay [2] (read-out: IC50 for inhibition of IKs tail current). Also, the “Block of IKs tail current” value in assay [2] (ranolazine 100 μM, reversed on washout) is reported as “largely eliminated the tail current; also recorded: almost completely blocked”.

Values taken from US20080109040A1, “METHOD OF TREATING ARRHYTHMIAS” (priority 2002, published 2008).
